pEC50: −log10 of the molar value. A value given as a limit tells only on which side of the number the result lay.

In one assay the target is T1, TGFBR2 (Homo sapiens, UniProt P37173).
T1 construct: purchased Reaction Biology Corp
As to the kind of experiment: TGFBR2 RBC enzyme assay (Reaction Biology Corp.). It counts as biochemical. The procedure: Compounds of the disclosure were assayed by Reaction Biology Corp. using the TGFBR2 RBC enzyme assay.

For assay [1], the system named is TGFβ/SMAD Singling Pathway SBE reporter cell line. As to the kind of experiment: TGFβ reporter assay (in vitro small molecule screening). Type of assay: cell-based. The following applies: SBE luciferase reporter cells, TGFβ stimulation, 18 h, luminescence. The procedure:
TGFβ/SMAD Singling Pathway SBE reporter cell line was obtained from BPS Bioscience. Cells were passed, expanded, and stored in liquid nitrogen as per the supplier's instructions with the exception that growth media is changed to DMEM-C with Geneticin (DMEM supplemented with 10% fetal bovine serum, 1×NEAA, 1 mM Pyruvate, 2 mM glutamine, 50 μg/mL penicillin, 50 U/mL streptomycin and 400 μg/mL of Geneticin). The assay media was MEM supplemented with […] fetal bovine serum, 1×NEAA, 1 mM Pyruvate, 50 μg/mL penicillin and 50 U/mL streptomycin.
Test samples (at desired concentrations diluted in assay media) were added to a 96-well assay plate, 20 μL per well. Reporter cells were harvested from the tissue culture flasks by incubation in small quantity of PBS at 37° C. for two minutes after the media in the flask is removed and cells rinsed with PBS. Cells were counted and diluted in the assay media at approximately 0.5×10^6 cells/mL and then 80 μL/well of cells were added to the assay plate containing the 20 μL/well of test samples (or media only), and incubated for approximately 5-6 hours at 37° C. in a 5% CO2 humidified incubator. After that time, 15 μL of TGFβ diluted to 12 ng/mL in the assay media was added to the plate. Controls included TGFβ titration (from 50 to 0 ng/mL) without inhibitors, and media only (without cells, inhibitor or TGFβ). Plates were incubated at 37° C. in a 5% CO2 humidified incubator for 18 h. Luciferase substrate solution is subsequently added at 100 μL per well, incubated in the dark at room temperature for 15 min, and luminescence is measured using a luminometer. EC50 values and curve fits were obtained using Prism (GraphPad Software).
For orientation: A reporter such as luciferase makes a cellular process visible.

T1 sequence (P37173 23-567): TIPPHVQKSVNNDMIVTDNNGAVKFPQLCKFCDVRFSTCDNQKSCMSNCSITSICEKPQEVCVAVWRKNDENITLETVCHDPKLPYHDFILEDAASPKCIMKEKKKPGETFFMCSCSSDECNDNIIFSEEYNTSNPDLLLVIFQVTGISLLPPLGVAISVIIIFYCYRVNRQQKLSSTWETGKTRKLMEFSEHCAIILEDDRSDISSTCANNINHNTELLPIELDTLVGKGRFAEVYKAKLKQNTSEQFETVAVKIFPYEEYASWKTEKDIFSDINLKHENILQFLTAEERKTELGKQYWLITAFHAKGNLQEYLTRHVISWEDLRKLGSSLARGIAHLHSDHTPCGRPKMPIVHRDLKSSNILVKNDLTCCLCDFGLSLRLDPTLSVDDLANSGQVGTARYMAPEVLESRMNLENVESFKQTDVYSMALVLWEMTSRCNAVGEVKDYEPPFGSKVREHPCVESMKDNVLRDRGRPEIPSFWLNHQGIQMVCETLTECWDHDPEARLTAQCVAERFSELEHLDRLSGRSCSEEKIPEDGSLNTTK

Consider `CN1CCCOc2cc(OCCCN3C(=O)c4ccccc4C3=O)cc(c2)-c2cnc(N)c(n2)C(=O)Nc2cnccc21` [Compound 14, 2-(3-((2^5-amino-6-methyl-3-oxo-10-oxa-4,6-diaza-2(2,6)-pyrazina-5(3,4)-pyridina-1(1,3)-benzenacyclodecaphane-1^5-yl)oxy)propyl)isoindoline-1,3-dione], for which the pEC50 is 7.00 to 9.00 at TGFBR2 and 6.00 to 9.00 in assay [1].

Take `CN1CCOCc2cccc(c2)-c2cnc(N)c(n2)C(=O)Nc2cnccc21` [Compound 15, 2^5-amino-6-methyl-9-oxa-4,6-diaza-2(2,6)-pyrazina-5(3,4)-pyridina-1(1,3)-benzenacyclodecaphan-3-one]: the negative logarithm of the EC50 (pEC50) at TGFBR2 was 7.00 to 9.00; in assay [1], 6.00 to 9.00.

Turning to `CN1CCCOc2cc(OCCCN)cc(c2)-c2cnc(N)c(n2)C(=O)Nc2cnccc21` [Compound 16, 2^5-amino-1^5-(3-aminopropoxy)-6-methyl-10-oxa-4,6-diaza-2(2,6)-pyrazina-5(3,4)-pyridina-1(1,3)-benzenacyclodecaphan-3-one], the pEC50 at TGFBR2 is 7.00 to 9.00; in assay [1] it was 6.00 to 9.00.

Consider `CCCN1CCCOc2cccc(c2)-c2cnc(N)c(n2)C(=O)Nc2cnccc21` [Compound 17, 2^5-amino-6-propyl-10-oxa-4,6-diaza-2(2,6)-pyrazina-5(3,4)-pyridina-1(1,3)-benzenacyclodecaphan-3-one], for which the pEC50 on TGFBR2 was 7.00 to 9.00; in assay [1], 6.00 to 9.00.

On to `CC1CCOc2cccc(c2)-c2cnc(N)c(n2)C(=O)Nc2cnccc2N1C` (stereo not shown) [Compound 18, 2^5-amino-6,7-dimethyl-10-oxa-4,6-diaza-2(2,6)-pyrazina-5(3,4)-pyridina-1(1,3)-benzenacyclodecaphan-3-one], for which the pEC50 at TGFBR2 is 7.00 to 9.00; in assay [1], 6.00 to 9.00.

With `CC1CCN(C)c2ccncc2NC(=O)c2nc(cnc2N)-c2cccc(c2)O1` (stereo not shown) [Compound 19, 2^5-amino-6,9-dimethyl-10-oxa-4,6-diaza-2(2,6)-pyrazina-5(3,4)-pyridina-1(1,3)-benzenacyclodecaphan-3-one], the results for the pEC50 (on TGFBR2; in assay [1]) were 7.00 to 9.00 and 6.00 to 9.00, respectively.

On to `CC1OCCN(C)c2ccncc2NC(=O)c2nc(cnc2N)-c2cccc1c2` (stereo not shown) [Compound 20], for which the negative-log EC50 (pEC50) at TGFBR2 is 7.00 to 9.00; in assay [1], 6.00 to 9.00.

`Nc1ncc2nc1C(=O)Nc1cnccc1OCCCOc1cccc-2c1` [Compound 21, 2^5-amino-6,10-dioxa-4-aza-2(2,6)-pyrazina-5(3,4)-pyridina-1(1,3)-benzenacyclodecaphan-3-one]: the results for the pEC50 (on TGFBR2; in assay [1]) were under 6.00 and under 5.30, respectively.

On to `Nc1ncc2nc1C(=O)Nc1cnccc1N1CCC(CC1)COc1cccc-2c1` [Compound 22, 1^5-amino-3-oxa-7-aza-1(2,6)-pyrazina-6(4,3)-pyridina-5(4,1)-piperidina-2(1,3)-benzenacyclooctaphan-8-one], for which the pEC50 on TGFBR2 is under 6.00; in assay [1] it was under 5.30.

`Nc1ncc2nc1C(=O)Nc1cnccc1N1CCC(CC1)Oc1cccc-2c1` [Compound 23, 1^5-amino-3-oxa-6-aza-1(2,6)-pyrazina-5(4,3)-pyridina-4(4,1)-piperidina-2(1,3)-benzenacycloheptaphan-7-one]: the pEC50 on TGFBR2 is under 6.00; in assay [1], under 5.30.

As for `Nc1ncc2nc1C(=O)Nc1cnccc1N1CCC(COc3cccc-2c3)C1` (stereo not shown) [Compound 25, 1^5-amino-3-oxa-7-aza-1(2,6)-pyrazina-6(4,3)-pyridina-5(3,1)-pyrrolidina-2(1,3)-benzenacyclooctaphan-8-one], the values for the pEC50 (on TGFBR2; in assay [1]) were 7.00 to 9.00 and 6.00 to 9.00, respectively.

Take `CN1CCC(=O)Nc2cccc(c2)-c2cnc(N)c(n2)C(=O)Nc2cnccc21` [Compound 26, 2^5-amino-6-methyl-4,6,10-triaza-2(2,6)-pyrazina-5(3,4)-pyridina-1(1,3)-benzenacyclodecaphene-3,9-dione]: the pEC50 is 7.00 to 9.00 on TGFBR2 and 6.00 to 9.00 in assay [1].

For `CN1CCC(=O)N(C)c2cccc(c2)-c2cnc(N)c(n2)C(=O)Nc2cnccc21` [Compound 27, 2^5-amino-6,10-dimethyl-4,6,10-triaza-2(2,6)-pyrazina-5(3,4)-pyridina-1(1,3)-benzenacyclodecaphane-3,9-dione], the results for the pEC50 (on TGFBR2; in assay [1]) were 7.00 to 9.00 and 6.00 to 9.00, respectively.

Turning to `CN1CCNC(=O)c2cccc(c2)-c2cnc(N)c(n2)C(=O)Nc2cnccc21` [Compound 30, 2^5-amino-6-methyl-4,6,9-triaza-2(2,6)-pyrazina-5(3,4)-pyridina-1(1,3)-benzenacyclodecaphane-3,10-dione], the figures for the pEC50 (on TGFBR2; in assay [1]) were under 6.00 and under 5.30, respectively.

With `CN1CCCNC(=O)c2cccc(c2)-c2cnc(N)c(n2)C(=O)Nc2cnccc21` [Compound 31, 2^5-amino-6-methyl-4,6,10-triaza-2(2,6)-pyrazina-5(3,4)-pyridina-1(1,3)-benzenacycloundecaphane-3,11-dione], the pEC50 on TGFBR2 is 6.00 to 7.00; in assay [1] it was 5.30 to 6.00.

For `CN1CCCCOc2ccccc2-c2cnc(N)c(n2)C(=O)Nc2cnccc21` [Compound 34, 2^5-amino-6-methyl-11-oxa-4,6-diaza-2(2,6)-pyrazina-5(3,4)-pyridina-1(1,2)-benzenacycloundecaphan-3-one], the values for the pEC50 (on TGFBR2; in assay [1]) were 6.00 to 7.00 and 5.30 to 6.00, respectively.

As to `Nc1ncc2nc1C(=O)Nc1cnccc1O[C@H]1CC[C@H](CC1)Oc1cccc-2c1` [Compound 43, (4^1,4^4-cis)-1^5-amino-3,5-dioxa-7-aza-1(2,6)-pyrazina-6(4,3)-pyridina-2(1,3)-benzena-4(1,4)-cyclohexanacyclooctaphan-8-one], the values for the pEC50 (at TGFBR2; in assay [1]) were under 6.00 and under 5.30, respectively.

On to `Nc1ncc2nc1C(=O)Nc1cnccc1OCCOc1ccc(Br)c-2c1` [Compound 49, 2^5-amino-16-bromo-6,9-dioxa-4-aza-2(2,6)-pyrazina-5(3,4)-pyridina-1(1,3)-benzenacyclononaphan-3-one], for which the negative logarithm of the EC50 (pEC50) on TGFBR2 is 7.00 to 9.00; in assay [1], 6.00 to 9.00.

Consider `Nc1ncc2nc1C(=O)Nc1cnccc1OCCOc1cccc-2c1` [Compound 50, 2^5-amino-6,9-dioxa-4-aza-2(2,6)-pyrazina-5(3,4)-pyridina-1(1,3)-benzenacyclononaphan-3-one], for which the pEC50 was 7.00 to 9.00 on TGFBR2 and 6.00 to 9.00 in assay [1].

With `Nc1ncc2nc1C(=O)Nc1cnccc1SCCCOc1ccc(Br)c-2c1` [Compound 51, 2^5-amino-1^6-bromo-10-oxa-6-thia-4-aza-2(2,6)-pyrazina-5(3,4)-pyridina-1(1,3)-benzenacyclodecaphan-3-one], the pEC50 on TGFBR2 is 7.00 to 9.00; in assay [1], 6.00 to 9.00.

`CN1CCCNC(=O)c2cc(ccc2OCCCN)-c2cnc(N)c(n2)C(=O)Nc2cnccc21` [Compound 53, 2^5-amino-1^4-(3-aminopropoxy)-6-methyl-4,6,10-triaza-2(2,6)-pyrazina-5(3,4)-pyridina-1(1,3)-benzenacycloundecaphane-3,11-dione]: the pEC50 on TGFBR2 is 6.00 to 7.00; in assay [1] it was under 5.30.

On to `CN1CCNC(=O)c2cc(ccc2OCCCN)-c2cnc(N)c(n2)C(=O)Nc2cnccc21` [Compound 55, 2^5-amino-1^4-(3-aminopropoxy)-6-methyl-4,6,9-triaza-2(2,6)-pyrazina-5(3,4)-pyridina-1(1,3)-benzenacyclodecaphane-3,10-dione], for which the pEC50 on TGFBR2 was 6.00 to 7.00; in assay [1] it was under 5.30.

Take `CN1CCN(C)c2ccncc2NC(=O)c2nc(cnc2N)-c2ccc(OCCCN)c(c2)C1=O` [Compound 56, 2^5-amino-1^4-(3-aminopropoxy)-6,9-dimethyl-4,6,9-triaza-2(2,6)-pyrazina-5(3,4)-pyridina-1(1,3)-benzenacyclodecaphene-3,10-dione]: the pEC50 was 7.00 to 9.00 at TGFBR2 and 5.30 to 6.00 in assay [1].

Turning to `CN1C[C@@H](CNCc2ccccc2)Oc2ccccc2-c2cnc(N)c(n2)C(=O)Nc2cnccc21` [Compound 57, (R)-2^5-amino-8-((benzylamino)methyl)-6-methyl-9-oxa-4,6-diaza-2(2,6)-pyrazin-5(3,4)-pyridina-1(1,2)-benzenacyclononaphan-3-one], the pEC50 is under 6.00 at TGFBR2 and 5.30 to 6.00 in assay [1].

For the compound `CN1C[C@H](CN)Oc2ccccc2-c2cnc(N)c(n2)C(=O)Nc2cnccc21` [Compound 58, (S)-2^5-amino-8-(aminomethyl)-6-methyl-9-oxa-4,6-diaza-2(2,6)-pyrazina-5(3,4)-pyridina-1(1,2)-benzenacyclononaphan-3-one], the pEC50 at TGFBR2 was under 6.00; in assay [1] it was 5.30 to 6.00.

On to `CN1C[C@H](CNCc2ccccc2)Oc2ccccc2-c2cnc(N)c(n2)C(=O)Nc2cnccc21` [Compound 59, (S)-2^5-amino-8-((benzylamino)methyl)-6-methyl-9-oxa-4,6-diaza-2(2,6)-pyrazina-5(3,4)-pyridina-1(1,2)-benzenacyclononaphan-3-one], for which the pEC50 at TGFBR2 was under 6.00; in assay [1], under 5.30.

The pEC50 is the negative decadic logarithm of the EC50, by convention in mol/L. The low end stands for a high EC50, the high end for a low EC50.

Values taken from US20220169660A1, “CYCLIC AMINO-PYRAZINECARBOXAMIDE COMPOUNDS AND USES THEREOF” (SILVERBACK THERAPEUTICS, INC., priority 2019, published 2022).
